The source of these data is patent US11638424B2, “Mosquito attractant formulations and uses thereof” (priority 2017, dated 2023).

The subject of one experiment is A. gambiae sensu lato. The experiment is described as follows: Feeding proportion experiments (90 s on membrane feeder). Format: in vivo. As to the method:
Mosquitoes used in this study were from the laboratory colony of A. gambiae sensu lato (Keele line, University of Glasgow), which was produced by balanced interbreeding of four A. gambiae s.s. strains (H. Hurd, et al. Evolution, 59, 2560-2572 (2005)). Larvae were reared under standard insectary conditions (27±1° C., 70% humidity, 12 h light: 12 h dark cycle) and fed on TetraMin fish flakes (Tetra ltd., Germany). Pupae were transferred into holding cages for emergence. Emerged adults were fed ad libitum on 5% glucose solution, supplemented with 0.05% (w/v) 4-aminobenzoic acid (PABA, Sigma-Aldrich), through soaked filters on top of the 2 ml tubes and with soaked filter pads inside cages. Red blood cells (RBCs) were washed with Roswell Park Memorial Institute (RPMI) medium and stored in RPMI at 50% haematocrit at 4° C. until use. […]
Fifty mosquitoes were isolated in three separate cages (8 cm internal diameter×10 cm in height) covered with netting, and fed on 1 ml of control RBCs, hRBCs or giRBCs, respectively. […] For each group, the number of fully fed mosquitoes compared to unfed controls was immediately recorded. In another set of feeding experiments, serum or a 0.9% physiological saline solution (NaCl, pH 7.4), either with or without 10 μM HMBPP, were offered to mosquitoes during a 5 min feeding window, and the number of fed mosquitoes recorded every minute for each cage separately. […]

For another experiment, the system named is A. gambiae s.l. The note with it: in vivo; cited from earlier work.

With `C/C(=C\COP(=O)(O)OP(=O)(O)O)CO` [HMBPP, (E)-4-hydroxy-3-methyl-but-2-enyl pyrophosphate], the “proportion of mosquitoes feeding over a range of HMBPP concentrations” value in the experiment on A. gambiae sensu lato (RBCs supplemented with different concentrations of HMBPP, below 10 μM) is “substantially lower doses are sufficient to trigger enhanced mosquito feeding”. Moreover, the “proportion of females fed” value with A. gambiae sensu lato (hRBCs (10 μM HMBPP) vs RBCs, 90 s feeding, FIG. 1B) is given as “more than doubled”. In addition, the “innate immune responses in A. gambiae s.l.” value with A. gambiae s.l. is “trigger innate immune responses”.
